Experimental data published in patent US20230382925A1, “MODULATORS OF CYSTIC FIBROSIS TRANSMEMBRANE CONDUCTANCE REGULATOR” (VERTEX PHARMACEUTICALS INCORPORATED, priority 2020, published 2023).
Read-outs that look alike come from different tables or passages of the source.

Columns and labels:
[1] = target: T1, CFTR (Homo sapiens, UniProt P13569); test: Membrane Potential Dye, Enteroid Assay A; type: cell-based; conditions: for EC50: read-out: Ent. A EC50
Method: Base medium (ADF+++) consisted of Advanced […], 2 mM Glutamax, 10 mM HEPES, 1 μg/mL penicillin/streptomycin.
Intestinal enteroid maintenance medium (IEMMN) consisted of ADF+++, 1× B27 supplement, 1× N2 supplement, 1.25 mM N-acetyl cysteine, 10 mM Nicotinamide, 50 ng/mL hEGF, 10 nM Gastrin, 1 μg/mL hR-spondin-1, 100 ng/mL hNoggin, TGF-b type 1 inhibitor A-83-01, 100 μg/mL Primocin, 10 μM P38 MAPK inhibitor SB202190.
Bath 1 Buffer consisted of 1 mM MgCl2, 160 mM NaCl, 4.5 mM KCl, 10 mM HEPES, 10 mM Glucose, 2 mM CaCl2).
Chloride Free Buffer consisted of 1 mM Magnesium Gluconate, 2 mM Calcium Gluconate, 4.5 mM Potassium Gluconate, 160 mM Sodium Gluconate, 10 mM HEPES, 10 mM Glucose.
Bath 1 Dye Solution consisted of Bath 1 Buffer, 0.04% Pluronic F127, 20 μM Methyl Oxonol, 30 μM CaCCinh-A01, 30 μM Chicago Sky Blue.
Chloride Free Dye Solution consisted of Chloride Free Buffer, 0.04% Pluronic F127, 20 μM Methyl Oxonol, 30 μM CaCCinh-A01, 30 μM Chicago Sky Blue.
Chloride Free Dye Stimulation Solution consisted of Chloride Free Dye Solution, 10 μM forskolin, 100 μM IBMX, and 300 nM Compound III.
Human intestinal epithelial enteroid cells were obtained from the Hubrecht Institute for Developmental Biology and Stem Cell Research, Utrecht, The Netherlands and expanded in T-Flasks as previously described (Dekkers J F, Wiegerinck C L, de Jonge H R, Bronsveld I, Janssens H M, de Winter-de Groot K M, Brandsma A M, de Jong N W M, Bijvelds M J C, Scholte B J, Nieuwenhuis E E S, van den Brink S, Clevers H, van der Ent C K, Middendorp S and M Beekman J M. A functional CFTR assay using primary cystic fibrosis intestinal organoids. Nat Med. 2013 July; 19(7):939-45.).
3. Enteroid Cell Harvesting and Seeding
Cells were recovered in cell recovery solution, collected by centrifugation at 650 rpm for 5 min at 4° C., resuspended in TrypLE and incubated for 5 min at 37° C. Cells were then collected by centrifugation at 650 rpm for 5 min at 4° C. and resuspended in IEMM containing 10 μM ROCK inhibitor (RI). The cell suspension was passed through a 40 μm cell strainer and resuspended at 1×10^6 cells/mL in IEMM containing 10 μM RI. Cells were seeded at 5000 cells/well into multi-well plates and incubated for overnight at 37° C., 95% humidity and 5% CO2 prior to assay.
4. Membrane Potential Dye, Enteroid Assay A
Enteroid cells were incubated with test compound in IEMM for 18-24 hours at 37° C., 95% humidity and 5% CO2. […] Briefly, cells were washed 5 times in Bath 1 Buffer. Bath 1 Dye Solution was added, and the cells were incubated for 25 min at room temperature. Following dye incubation, cells were washed 3 times in Chloride Free Dye Solution. Chloride transport was initiated by addition of Chloride Free Dye Stimulation Solution and the fluorescence signal was read for 15 min. […] Chloride transport was then expressed as a percentage of the chloride transport following treatment with 3 μM N-[(6-amino-2-pyridyl)sulfonyl]-6-(3-fluoro-5-isobutoxy-phenyl)-2-[(4S)-2,2,4-trimethylpyrrolidin-1-yl]pyridine-3-carboxamide, 3 μM (R)-1-(2,2-difluorobenzo[d][1,3]dioxol-5-yl)-N-(1-(2,3-dihydroxypropyl)-6-fluoro-2-(1-hydroxy-2-methylpropan-2-yl)-1H-indol-5-yl)cyclopropanecarboxamide and 300 nM acute N-[2,4-bis(1,1-dimethylethyl)-5-hydroxyphenyl]-1,4-dihydro-4-oxoquinoline-3-carboxamide triple combination control (% Activity).

[2] = target: T1, CFTR; test: Membrane Potential Dye, Enteroid Assay B; type: cell-based
In short: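 Human intestinal enteroid cells exposed to compound 18-24 h at 37 °C, then loaded with methyl oxonol membrane-potential dye plus CaCC blockers. Chloride transport triggered in chloride-free buffer with 10 μM forskolin, 100 μM IBMX, 300 nM Compound III; fluorescence read 15 min, expressed as % of triple-corrector/potentiator combination control.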

T1 sequence (P13569 with tags, fused parts or gaps DEL508-508): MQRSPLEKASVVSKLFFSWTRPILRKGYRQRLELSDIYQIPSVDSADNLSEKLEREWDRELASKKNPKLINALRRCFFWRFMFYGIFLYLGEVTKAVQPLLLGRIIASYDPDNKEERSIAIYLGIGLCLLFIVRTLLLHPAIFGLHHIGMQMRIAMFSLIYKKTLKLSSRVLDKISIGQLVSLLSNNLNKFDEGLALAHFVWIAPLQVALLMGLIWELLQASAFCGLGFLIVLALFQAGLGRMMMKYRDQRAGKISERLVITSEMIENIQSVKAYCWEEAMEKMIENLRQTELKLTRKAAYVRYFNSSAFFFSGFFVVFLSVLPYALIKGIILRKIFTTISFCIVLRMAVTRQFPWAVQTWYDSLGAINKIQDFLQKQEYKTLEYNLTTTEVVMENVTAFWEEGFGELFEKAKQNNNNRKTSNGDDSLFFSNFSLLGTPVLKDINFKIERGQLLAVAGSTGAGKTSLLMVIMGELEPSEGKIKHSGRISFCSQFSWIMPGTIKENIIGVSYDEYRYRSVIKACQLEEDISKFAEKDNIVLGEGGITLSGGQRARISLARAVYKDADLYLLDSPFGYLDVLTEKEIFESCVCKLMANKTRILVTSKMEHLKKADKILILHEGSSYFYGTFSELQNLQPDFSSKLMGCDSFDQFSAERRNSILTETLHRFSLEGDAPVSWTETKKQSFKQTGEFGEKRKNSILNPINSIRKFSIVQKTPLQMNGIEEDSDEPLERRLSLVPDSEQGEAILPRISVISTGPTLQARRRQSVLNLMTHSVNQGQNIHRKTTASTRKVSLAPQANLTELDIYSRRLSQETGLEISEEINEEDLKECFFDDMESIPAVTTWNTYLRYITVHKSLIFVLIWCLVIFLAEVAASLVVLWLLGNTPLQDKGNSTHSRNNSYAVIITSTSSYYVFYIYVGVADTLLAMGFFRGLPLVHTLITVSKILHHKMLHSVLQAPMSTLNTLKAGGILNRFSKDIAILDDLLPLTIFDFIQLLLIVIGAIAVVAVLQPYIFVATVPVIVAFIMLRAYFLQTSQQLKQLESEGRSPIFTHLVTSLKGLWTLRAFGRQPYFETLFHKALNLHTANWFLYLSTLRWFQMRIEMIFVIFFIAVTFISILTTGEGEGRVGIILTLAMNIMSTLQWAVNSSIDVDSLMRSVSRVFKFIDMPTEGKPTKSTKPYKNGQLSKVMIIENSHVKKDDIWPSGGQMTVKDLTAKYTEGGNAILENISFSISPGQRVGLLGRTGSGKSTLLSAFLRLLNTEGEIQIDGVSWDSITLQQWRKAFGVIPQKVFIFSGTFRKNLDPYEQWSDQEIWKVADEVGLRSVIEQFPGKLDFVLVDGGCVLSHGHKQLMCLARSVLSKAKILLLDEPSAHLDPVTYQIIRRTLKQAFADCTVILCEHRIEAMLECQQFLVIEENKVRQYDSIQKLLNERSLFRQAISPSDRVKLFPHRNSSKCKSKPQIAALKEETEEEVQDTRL

Compound | Ent. A Max Activity (%) [1] | EC50 [1] | Ent. B Max Activity (%) ([2]; Table 9) | EC50 ([2]; Table 9, read-out: Ent. B EC50) | other results
Cc1cccc(C)c1-c1cc2nc(n1)NS(=O)(=O)c1cccc(c1)C(=O)N([C@H]1C[C@]3(CCN(C(C)C)C3)C1)[C@H](CC(C)C)CO2 (single isomer, unassigned) [Compound 33] | +++ (+++ is >60%) | < 1000 nM |  |  | 
Cc1cccc(C)c1-c1cc2nc(n1)NS(=O)(=O)c1cccc(c1)C(=O)N([C@H]1C[C@]3(CCN(C(C)C)C3)C1)[C@H](CC(C)C)CO2 (single isomer, unassigned) [Compound 34] | +++ (+++ is >60%) | < 1000 nM |  |  | 
Cc1cccc(C)c1-c1cc2nc(n1)NS(=O)(=O)c1cccc(c1)C(=O)N([C@H]1C[C@@H](OCc3ccccc3)C1)[C@H](CC(C)C)CO2 (single isomer, unassigned) [Compound 42] | ++ (++ is 30-60%) | < 1000 nM |  |  | 
Cc1cccc(C)c1-c1cc2nc(n1)NS(=O)(=O)c1cccc(c1)C(=O)N([C@H]1C[C@@H](O)C1)[C@H](CC(C)C)CO2 (single isomer, unassigned) [Compound 44] | +++ (+++ is >60%) | < 1000 nM |  |  | 
Cc1cccc(C)c1-c1cc2nc(n1)NS(=O)(=O)c1cccc(c1)C(=O)N(C1CC3(CC3)C1)C(CC(F)(F)F)CO2 (single isomer, unassigned) [Compound 109, 6-(2,6-Dimethylphenyl)-2,2-dioxo-12-spiro[2.3]hexan-5-yl-11-(2,2,2-trifluoroethyl)-9-oxa-2λ^6-thia-3,5,12,19-tetrazatricyclo[12.3.1.14,8]nonadeca-1(18),4(19),5,7,14,16-hexaen-13-one] | ++ (++ is 30-60%) | 1000 to 3000 nM |  |  | 
CC(=O)N1CC2(CC(N3C(=O)c4cccc(c4)S(=O)(=O)Nc4nc(cc(-c5c(C)cccc5C)n4)OC[C@H]3CC3(C(F)(F)F)CC3)C2)C1 [Compound 452] |  |  | +++ (+++ is >60%) | < 1000 nM | 
COC(=O)N1CC2(CC(N3C(=O)c4cccc(c4)S(=O)(=O)Nc4nc(cc(-c5c(C)cccc5C)n4)OC[C@H]3CC3(C(F)(F)F)CC3)C2)C1 [Compound 453] |  |  | +++ (+++ is >60%) | < 1000 nM | 
CO[C@H](C)C(=O)N1CCC2(CC1)CC(N1C(=O)c3cccc(c3)S(=O)(=O)Nc3nc(cc(-c4c(C)cccc4C)n3)OC[C@H]1CC(C)C)C2 [Compound 457] |  |  | +++ (+++ is >60%) | < 1000 nM | 
Cc1cccc(C)c1-c1cc2nc(n1)NS(=O)(=O)c1cccc(c1)C(=O)N(C1CC3(CCN(C(=O)COC(C)C)CC3)C1)[C@H](CC(C)C)CO2 [Compound 458] |  |  | +++ (+++ is >60%) | < 1000 nM | 
Cc1cccc(C)c1-c1cc2nc(n1)NS(=O)(=O)c1cccc(c1)C(=O)N(C1CC3(CC(N(C)C)C3)C1)[C@H](CC(C)(C)C)CO2 (some centres unmarked) [Compound 461] |  |  | +++ (+++ is >60%) | < 1000 nM | 
Cc1cccc(C)c1-c1cc2nc(n1)NS(=O)(=O)c1cccc(c1)C(=O)N(C1CC3(CC(N(C)C)C3)C1)[C@H](CC(C)(C)C)CO2 (some centres unmarked) [Compound 462] |  |  | +++ (+++ is >60%) | < 1000 nM | 
Cc1cccc(C)c1-c1cc2nc(n1)NS(=O)(=O)c1cccc(c1)C(=O)N(C1CC3(CC(N)C3)C1)[C@H](CC(C)(C)C)CO2 (some centres unmarked) [Compound 463] |  |  | +++ (+++ is >60%) | < 1000 nM | 
Cc1cccc(C)c1-c1cc2nc(n1)NS(=O)(=O)c1cccc(c1)C(=O)N(C1CC3(CCN(C(=O)OC(C)C)CC3)C1)[C@H](CC1(C(F)(F)F)CC1)CO2 [Compound 464] |  |  |  |  | Ent. B Max Activity (%) [2]: +++ (+++ is >60%); EC50 ([2]; read-out: Ent. B EC50): < 1000 nM
COC1CC(N2C(=O)c3cccc(c3)S(=O)(=O)Nc3nc(cc(-c4c(C)cccc4C)n3)OC[C@H]2CC(C)C)C1 (some centres unmarked) [Compound 467] |  |  |  |  | Ent. B Max Activity (%) [2]: +++ (+++ is >60%); EC50 ([2]; read-out: Ent. B EC50): < 1000 nM
Cc1cccc(C)c1-c1cc2nc(n1)NS(=O)(=O)c1cccc(c1)C(=O)N(C1CC3(CC3)C1)CC(C(C)C)O2 (centres unmarked) [Compound 468] |  |  |  |  | Ent. B Max Activity (%) [2]: ++ (++ is 30-60%); EC50 ([2]; read-out: Ent. B EC50): < 1000 nM
COC(=O)N[C@H]1C[C@@H](N2C(=O)c3cccc(c3)S(=O)(=O)Nc3nc(cc(-c4c(C)cccc4C)n3)OC[C@H]2CC(C)(C)C)C1 [Compound 472] |  |  | +++ (+++ is >60%) | < 1000 nM | 

Now from value to compound, other results behind:

Ent. A Max Activity (%) [1] | EC50 [1] | Ent. B Max Activity (%) ([2]; Table 9) | EC50 ([2]; Table 9, read-out: Ent. B EC50) | Compound | other results
+++ (+++ is >60%) | 1000 to 3000 nM |  |  | Cc1cccc(C)c1-c1cc2nc(n1)NS(=O)(=O)c1cccc(c1)C(=O)N([C@H]1C[C@@H](CO)C1)[C@H](CC(C)C)CO2 (single isomer, unassigned) [Compound 40] | 
+++ (+++ is >60%) | 1000 to 3000 nM |  |  | Cc1cccc(C)c1-c1cc2nc(n1)NS(=O)(=O)c1cccc(c1)C(=O)N([C@H]1C[C@@H](O)C1)[C@H](CC(C)C)CO2 (single isomer, unassigned) [Compound 43] | 
++ (++ is 30-60%) | < 1000 nM |  |  | Cc1cccc(C)c1-c1cc2nc(n1)NS(=O)(=O)c1cccc(c1)C(=O)N(C1CC3(CC3)C1)C(CC(F)(F)F)CO2 (single isomer, unassigned) [Compound 125, 6-(2,6-dimethylphenyl)-12-{spiro[2.3]hexan-5-yl}-11-(2,2,2-trifluoroethyl)-9-oxa-2λ^6-thia-3,5,12,19-tetraazatricyclo[12.3.1.14,8]nonadeca-1(17),4(19),5,7,14(18),15-hexaene-2,2,13-trione] | 
+++ (+++ is >60%) | < 1000 nM |  |  | Cc1cccc(C)c1-c1cc2nc(n1)NS(=O)(=O)c1cccc(c1)C(=O)N(C1CC3(CCN(C)CC3)C1)C(CC1(C(F)(F)F)CC1)CO2 (single isomer, unassigned) [Compound 136, 6-(2,6-Dimethylphenyl)-12-(7-methyl-7-azaspiro[3.5]nonan-2-yl)-2,2-dioxo-11-[[1-(trifluoromethyl)cyclopropyl]methyl]-9-oxa-2λ^6-thia-3,5,12,19-tetrazatricyclo[12.3.1.14,8]nonadeca-1(18),4(19),5,7,14,16-hexaen-13-one] | 
 |  | +++ (+++ is >60%) | < 1000 nM | CO[C@@H](C)C(=O)N1CCC2(CC1)CC(N1C(=O)c3cccc(c3)S(=O)(=O)Nc3nc(cc(-c4c(C)cccc4C)n3)OC[C@H]1CC(C)C)C2 [Compound 454] | 
 |  | +++ (+++ is >60%) | < 1000 nM | Cc1cccc(C)c1-c1cc2nc(n1)NS(=O)(=O)c1cccc(c1)C(=O)N(C1CC3(CCN(C(=O)[C@@H](C)O)CC3)C1)[C@H](CC(C)C)CO2 [Compound 455] | 
 |  | +++ (+++ is >60%) | < 1000 nM | Cc1cccc(C)c1-c1cc2nc(n1)NS(=O)(=O)c1cccc(c1)C(=O)N(C1CC3(CCN(C(=O)[C@H](C)O)CC3)C1)[C@H](CC(C)C)CO2 [Compound 456] | 
 |  | +++ (+++ is >60%) | < 1000 nM | COCC(=O)N1CCC2(CC1)CC(N1C(=O)c3cccc(c3)S(=O)(=O)Nc3nc(cc(-c4c(C)cccc4C)n3)OC[C@H]1CC(C)C)C2 [Compound 459] | 
 |  | +++ (+++ is >60%) | < 1000 nM | Cc1cccc(C)c1-c1cc2nc(n1)NS(=O)(=O)c1cccc(c1)C(=O)N(C1CC3(CCN(C(=O)COC(C)(C)C)CC3)C1)[C@H](CC(C)C)CO2 [Compound 460] | 
